Experimental data reported in patent US20250064844A1 (Emory University, priority 2020, published 2025).
Where two headings read alike, the source gives them in different places.

How the values were obtained:
SARS-CoV2 = assay: microbe, parasite or virus in culture; type: cell-based; conditions: Severe acute respiratory syndrome coronavirus 2, Vero
clinical = conditions: human, in vivo; for AUC(0-inf): AUCinf
HCoV = assay: organism not typed; type: cell-based; conditions: Vero C1008
[1] = cynomolgus monkey, in vivo, po
Vero cells = assay: Cell uptake and metabolism of EIDD-2801 in Vero cells; conditions: intracellular analyte; Vero cells incubated with 20 μM EIDD-2801, 1-24 hours
HepG2 cells = assay: Cell uptake and metabolism of EIDD-2801 in HepG2 cells; conditions: intracellular analyte; HepG2 cells incubated with 20 μM EIDD-2801, 1-24 hours
[2] = human, in vivo
CEM cells = assay: Cell uptake and metabolism of EIDD-2801 in CEM cells; conditions: intracellular analyte; CEM cells incubated with EIDD-2801 (40 μM solution prepared), 1-24 hours
SARS [3] = assay: organism not typed; type: cell-based; conditions: Vero C1008
SARS [4] = assay: organism not typed; type: cell-based; conditions: Vero C1008, SARS; Vero E6
Huh-7 cells = assay: Cell uptake and metabolism of EIDD-2801 in Huh-7 cells; conditions: intracellular analyte; Huh-7 cells incubated with 20 μM EIDD-2801, 1-24 hours

In the case of `O=c1nc(NO)ccn1C1OC(CO)C(O)C1O` (stereo not shown) [EIDD-1931, 1-(3,4-dihydroxy-5-(hydroxymethyl)tetrahydrofuran-2-yl)-4-(hydroxyamino)pyrimidin-2-one], the EC50 (SARS-CoV2) is reported as 300 nM, the AUC(0-inf) (clinical; 50 mg) is reported as 461 ng·h/mL and the AUC(0-t) (clinical; 50 mg, AUClast) is reported as 444 ng·h/mL. It also gave an AUC(0-t) (clinical; 50 mg, AUCt) of 461 ng·h/mL, a Cmax (clinical; 50 mg) of 223 ng/mL and a half-life (clinical; 50 mg, t1/2) of 56.2 min. It also gave a Tmax (clinical; 50 mg, tmax) of 1 h, an AUC(0-inf) (clinical; 100 mg) of 855 ng·h/mL and an AUC(0-t) (clinical; 100 mg, AUClast) of 835 ng·h/mL. For the same compound, the AUC(0-t) (clinical; 100 mg, AUCt) was 854 ng·h/mL, the Cmax (clinical; 100 mg) was 395 ng/mL and the half-life (clinical; 100 mg, t1/2) was 55.1 min. It also gave a Tmax (clinical; 100 mg, tmax) of 1.25 h, an AUC(0-inf) (clinical; 200 mg) of 1660 ng·h/mL and an AUC(0-t) (clinical; 200 mg, AUClast) of 1720 ng·h/mL. It also gave an AUC(0-t) (clinical; 200 mg, AUCt) of 1730 ng·h/mL, a Cmax (clinical; 200 mg) of 742 ng/mL and a half-life (clinical; 200 mg, t1/2) of 65.4 min. The Tmax (clinical; 200 mg, tmax) was 1.5 h, the AUC(0-inf) (clinical; 300 mg) was 3090 ng·h/mL and the AUC(0-t) (clinical; 300 mg, AUClast) was 2980 ng·h/mL. The AUC(0-t) (clinical; 300 mg, AUCt) was 2960 ng·h/mL, the Cmax (clinical; 300 mg) was 1100 ng/mL and the half-life (clinical; 300 mg, t1/2) was 103 min. It also gave a Tmax (clinical; 300 mg, tmax) of 1.5 h, an AUC(0-inf) (clinical; 400 mg) of 3800 ng·h/mL and an AUC(0-t) (clinical; 400 mg, AUClast) of 3730 ng·h/mL. It also gave an AUC(0-t) (clinical; 400 mg, AUCt) of 3710 ng·h/mL, a Cmax (clinical; 400 mg) of 1470 ng/mL and a half-life (clinical; 400 mg, t1/2) of 72 min. The Tmax (clinical; 400 mg, tmax) was 1.5 h, the AUC(0-inf) (clinical; 600 mg) was 6680 ng·h/mL and the AUC(0-t) (clinical; 600 mg, AUClast) was 7250 ng·h/mL. For the same compound, the AUC(0-t) (clinical; 600 mg, AUCt) was 7110 ng·h/mL, the Cmax (clinical; 600 mg) was 2240 ng/mL and the half-life (clinical; 600 mg, t1/2) was 69.6 min. The Tmax (clinical; 600 mg, tmax) was 1.75 h, the AUC(0-inf) (clinical; 800 mg) was 8200 ng·h/mL and the AUC(0-t) (clinical; 800 mg, AUClast) was 8450 ng·h/mL. The AUC(0-t) (clinical; 800 mg, AUCt) was 8330 ng·h/mL, the Cmax (clinical; 800 mg) was 2970 ng/mL and the Tmax (clinical; 800 mg, tmax) was 1.5 h. It also gave a half-life (clinical; mean t1/2) of 55.1 to 70.8 min, a Tmax (clinical; median tmax) of 1 to 1.75 h and an AUC(0-inf) (clinical; po, 50 mg) of 432 ng·h/mL. The AUC(0-t) (clinical; po, 50 mg, AUClast) was 415 ng·h/mL, the Cmax (clinical; po, 50 mg) was 223 ng/mL and the half-life (clinical; po, 50 mg, t1/2) was 56.7 min. For the same compound, the Tmax (clinical; po, 50 mg, tmax (median)) was 1 h, the AUC(0-inf) (clinical; po, 100 mg) was 932 ng·h/mL and the AUC(0-t) (clinical; po, 100 mg, AUClast) was 917 ng·h/mL. The Cmax (clinical; po, 100 mg) was 454 ng/mL, the half-life (clinical; po, 100 mg, t1/2) was 54.4 min and the Tmax (clinical; po, 100 mg, tmax (median)) was 1 h. For the same compound, the AUC(0-inf) (clinical; po, 200 mg) was 1830 ng·h/mL, the AUC(0-t) (clinical; po, 200 mg, AUClast) was 1810 ng·h/mL and the Cmax (clinical; po, 200 mg) was 926 ng/mL. For the same compound, the half-life (clinical; po, 200 mg, t1/2) was 61.2 min, the Tmax (clinical; po, 200 mg, tmax (median)) was 1 h and the AUC(0-inf) (clinical; po, 400 mg) was 4010 ng·h/mL. For the same compound, the AUC(0-t) (clinical; po, 400 mg, AUClast) was 4000 ng·h/mL, the Cmax (clinical; po, 400 mg) was 1850 ng/mL and the half-life (clinical; po, 400 mg, t1/2) was 61.8 min. It also gave a Tmax (clinical; po, 400 mg, tmax (median)) of 1 h, an AUC(0-inf) (clinical; po, 600 mg) of 6130 ng·h/mL and an AUC(0-t) (clinical; po, 600 mg, AUClast) of 6120 ng·h/mL. The Cmax (clinical; po, 600 mg) was 2720 ng/mL, the half-life (clinical; po, 600 mg, t1/2) was 63.6 min and the Tmax (clinical; po, 600 mg, tmax (median)) was 1 h. For the same compound, the AUC(0-inf) (clinical; po, 800 mg) was 8740 ng·h/mL, the AUC(0-t) (clinical; po, 800 mg, AUClast) was 8720 ng·h/mL and the Cmax (clinical; po, 800 mg) was 3640 ng/mL. For the same compound, the half-life (clinical; po, 800 mg, t1/2) was 77.4 min, the Tmax (clinical; po, 800 mg, tmax (median)) was 1 h and the AUC(0-inf) (clinical; po, 1200 mg) was 13800 ng·h/mL. It also gave an AUC(0-t) (clinical; po, 1200 mg, AUClast) of 13800 ng·h/mL, a Cmax (clinical; po, 1200 mg) of 4500 ng/mL and a half-life (clinical; po, 1200 mg, t1/2) of 109 min. The Tmax (clinical; po, 1200 mg, tmax (median)) was 1.75 h, the AUC(0-inf) (clinical; po, 1600 mg) was 20700 ng·h/mL and the AUC(0-t) (clinical; po, 1600 mg, AUClast) was 20700 ng·h/mL. The Cmax (clinical; po, 1600 mg) was 6350 ng/mL, the half-life (clinical; po, 1600 mg, t1/2) was 275 min and the Tmax (clinical; po, 1600 mg, tmax (median)) was 1.5 h. It also gave a half-life (clinical; po, geometric mean terminal elimination half-lives (t1/2)) of 54.6 to 77.4 min, a Tmax (clinical; po, median tmax) of 1 h and an EC50 (HCoV) of under 400 nM. For the same compound, the “bioavailability” value [1] was “low bioavailability”, the “AUC0−>t” value (Vero cells) was 228.6 pmol · h/M cells and the Cmax (Vero cells) was 13.5 pmol/M Cells. For the same compound, the “AUC0−>t” value (HepG2 cells) was 249.8 pmol · h/M cells, the Cmax (HepG2 cells) was 13.4 pmol/M Cells and the “Slope (90% Confidence Interval) of power model, AUCinf” value [2] was 1.07 (1.02, 1.13). The “Slope (90% Confidence Interval) of power model, AUClast” value [2] was 1.09 (1.03, 1.15), the “Slope (90% Confidence Interval) of power model, Cmax” value [2] was 1.01 (0.927, 1.08) and the “Slope of power model, AUCinf” value [2] was 1.10. For the same compound, the “Slope of power model, AUClast” value [2] was 1.11, the “Slope of power model, AUCt” value [2] was 1.08 and the “delay of median tmax, capsule vs solution formulation” value [2] was “up to 0.75 hours”. The “dose excreted in urine as EIDD-1931” value [2] was 0.854-3.61%, the “geometric mean accumulation ratio based on AUCt” value [2] was 0.938-1.16 and the “geometric mean accumulation ratio based on Cmax” value [2] was 0.843-1.10. For the same compound, the “geometric mean ratio of AUCinf, capsule (multiple-dose cohorts Day 1) vs solution (single-dose cohorts)” value [2] was 0.91-1.09, the “geometric mean ratio of Cmax, capsule vs solution formulation” value [2] was 0.76-1.00 and the “RAcmax (accumulation ratio)” value ([2]; 50 mg) was 0.843. For the same compound, the “RAcmax (accumulation ratio)” value ([2]; 100 mg) was 1.10, the “FEAUC/inf (ratio of AUCinf fed:fasted)” value ([2]; 200 mg) was 0.955 and the “FECmax (ratio of Cmax fed:fasted)” value ([2]; 200 mg) was 0.644. The “RAcmax (accumulation ratio)” value ([2]; 200 mg) was 0.969, the “mean Cmax lower in the fed state compared to the fasted state” value ([2]; 200 mg) was “approximately 36%” and the “RAcmax (accumulation ratio)” value ([2]; 300 mg) was 0.861. The “RAcmax (accumulation ratio)” value ([2]; 400 mg) was 0.962, the “RAcmax (accumulation ratio)” value ([2]; 600 mg) was 1.04 and the “RAcmax (accumulation ratio)” value ([2]; 800 mg) was 1.09. For the same compound, the t1/2 ([2]; 800 mg) was 7.08¶ h, the “AUC0−>t” value (CEM cells) was 5.8 pmol · h/M cells and the Cmax (CEM cells) was 0.3 pmol/M Cells. For the same compound, the EC90 (SARS [3]) was under 800 nM, the EC50 (SARS [4]) was under 800 nM and the “AUC0−>t” value (Huh-7 cells) was 449.2 pmol · h/M cells. For the same compound, the Cmax (Huh-7 cells) was 29.0 pmol/M Cells.
